Activity calls are given as the source filed them.
Experiments:
Aurora kinase B = Aurora kinase B (Homo sapiens, UniProt Q96GD4)
[1] = target: Cyclin-dependent kinase 4 (Homo sapiens, UniProt P11802)
[2] = target: T1, NUAK family SNF1-like kinase 2 (Homo sapiens, UniProt Q9H093)
T1 sequence (Q9H093 whole entry): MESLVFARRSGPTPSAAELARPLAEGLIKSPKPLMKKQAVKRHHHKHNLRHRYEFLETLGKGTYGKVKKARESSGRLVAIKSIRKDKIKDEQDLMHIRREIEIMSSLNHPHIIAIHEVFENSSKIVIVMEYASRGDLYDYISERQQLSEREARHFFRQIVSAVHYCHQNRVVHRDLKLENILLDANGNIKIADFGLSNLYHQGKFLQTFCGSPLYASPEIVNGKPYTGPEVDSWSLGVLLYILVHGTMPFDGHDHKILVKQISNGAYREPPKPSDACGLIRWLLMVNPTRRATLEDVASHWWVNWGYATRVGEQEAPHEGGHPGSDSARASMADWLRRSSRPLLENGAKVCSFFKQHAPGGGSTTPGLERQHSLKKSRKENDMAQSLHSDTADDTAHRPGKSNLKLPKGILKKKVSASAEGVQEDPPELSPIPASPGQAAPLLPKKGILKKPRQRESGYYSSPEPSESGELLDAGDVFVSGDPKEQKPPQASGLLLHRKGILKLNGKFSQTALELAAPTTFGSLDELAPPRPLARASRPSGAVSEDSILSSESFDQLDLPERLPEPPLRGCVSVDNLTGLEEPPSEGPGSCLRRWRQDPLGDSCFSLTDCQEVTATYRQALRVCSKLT

[3] = target: Serine/threonine-protein kinase N2 (Homo sapiens, UniProt Q16513)
Sequence of Serine/threonine-protein kinase N2 (Q16513 whole entry): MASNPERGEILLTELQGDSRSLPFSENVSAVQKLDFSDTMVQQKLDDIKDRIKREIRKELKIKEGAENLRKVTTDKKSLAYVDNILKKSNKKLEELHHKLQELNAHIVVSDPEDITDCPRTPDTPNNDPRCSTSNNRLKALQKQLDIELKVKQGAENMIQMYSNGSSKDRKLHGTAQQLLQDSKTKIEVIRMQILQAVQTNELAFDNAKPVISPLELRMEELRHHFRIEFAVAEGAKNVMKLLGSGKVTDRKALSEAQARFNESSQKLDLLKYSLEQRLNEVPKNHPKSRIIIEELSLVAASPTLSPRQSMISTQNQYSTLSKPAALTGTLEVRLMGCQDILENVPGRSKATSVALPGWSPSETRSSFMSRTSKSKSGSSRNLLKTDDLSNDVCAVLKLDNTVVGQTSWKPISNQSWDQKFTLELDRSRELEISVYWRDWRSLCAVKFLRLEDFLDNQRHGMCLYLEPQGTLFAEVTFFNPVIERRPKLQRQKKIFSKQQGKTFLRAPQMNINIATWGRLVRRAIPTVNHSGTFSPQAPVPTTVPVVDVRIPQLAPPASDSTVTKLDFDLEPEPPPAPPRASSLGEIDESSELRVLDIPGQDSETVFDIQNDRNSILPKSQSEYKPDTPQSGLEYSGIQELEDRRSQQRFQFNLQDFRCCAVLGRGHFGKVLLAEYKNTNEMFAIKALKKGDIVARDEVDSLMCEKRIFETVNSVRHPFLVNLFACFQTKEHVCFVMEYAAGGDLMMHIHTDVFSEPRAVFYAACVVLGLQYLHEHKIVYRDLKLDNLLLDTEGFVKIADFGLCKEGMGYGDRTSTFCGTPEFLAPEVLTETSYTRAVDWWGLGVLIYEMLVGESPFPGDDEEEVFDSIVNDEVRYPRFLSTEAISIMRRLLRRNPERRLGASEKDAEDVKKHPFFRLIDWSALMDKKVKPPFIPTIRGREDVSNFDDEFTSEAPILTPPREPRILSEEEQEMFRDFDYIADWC

[4] = target: T2, Serine/threonine-protein kinase D3 (Homo sapiens, UniProt O94806)
T2 sequence (O94806 whole entry): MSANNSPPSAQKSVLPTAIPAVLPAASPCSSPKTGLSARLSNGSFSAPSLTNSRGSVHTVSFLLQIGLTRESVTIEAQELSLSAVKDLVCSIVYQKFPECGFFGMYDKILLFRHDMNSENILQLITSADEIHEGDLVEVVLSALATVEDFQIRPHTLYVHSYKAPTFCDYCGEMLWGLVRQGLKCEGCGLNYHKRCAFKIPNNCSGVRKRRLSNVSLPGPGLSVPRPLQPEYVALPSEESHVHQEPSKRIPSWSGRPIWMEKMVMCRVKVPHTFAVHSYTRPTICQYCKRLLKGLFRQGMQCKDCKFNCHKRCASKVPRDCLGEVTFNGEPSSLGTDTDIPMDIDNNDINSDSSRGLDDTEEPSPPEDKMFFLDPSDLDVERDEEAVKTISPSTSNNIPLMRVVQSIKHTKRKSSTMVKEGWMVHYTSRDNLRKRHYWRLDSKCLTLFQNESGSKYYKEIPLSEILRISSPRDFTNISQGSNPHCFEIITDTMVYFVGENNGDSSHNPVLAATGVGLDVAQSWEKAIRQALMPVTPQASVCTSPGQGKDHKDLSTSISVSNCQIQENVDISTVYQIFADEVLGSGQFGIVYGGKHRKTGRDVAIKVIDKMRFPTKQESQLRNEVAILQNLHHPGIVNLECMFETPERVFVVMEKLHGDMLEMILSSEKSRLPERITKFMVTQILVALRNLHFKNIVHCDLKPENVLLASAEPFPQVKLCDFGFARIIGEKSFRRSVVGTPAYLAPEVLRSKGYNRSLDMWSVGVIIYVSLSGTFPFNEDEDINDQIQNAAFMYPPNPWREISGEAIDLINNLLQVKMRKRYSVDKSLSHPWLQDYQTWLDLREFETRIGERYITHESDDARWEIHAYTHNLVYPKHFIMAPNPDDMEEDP

[5] = target: T3, STE20-related kinase adapter protein alpha (Homo sapiens, UniProt Q7RTN6)
T3 sequence (Q7RTN6 whole entry): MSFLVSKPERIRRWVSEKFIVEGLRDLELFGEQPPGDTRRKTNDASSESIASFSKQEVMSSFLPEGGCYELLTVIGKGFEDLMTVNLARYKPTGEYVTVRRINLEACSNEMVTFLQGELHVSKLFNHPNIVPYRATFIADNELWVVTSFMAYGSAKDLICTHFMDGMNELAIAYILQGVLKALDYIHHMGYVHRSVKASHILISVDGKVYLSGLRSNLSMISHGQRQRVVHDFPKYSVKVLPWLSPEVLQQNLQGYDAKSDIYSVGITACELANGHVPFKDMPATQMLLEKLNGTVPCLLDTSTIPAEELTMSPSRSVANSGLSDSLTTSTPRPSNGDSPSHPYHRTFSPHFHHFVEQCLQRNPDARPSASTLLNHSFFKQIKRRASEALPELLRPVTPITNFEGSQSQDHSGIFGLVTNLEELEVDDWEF

[6] = target: T4, Tyrosine--tRNA ligase, cytoplasmic (Homo sapiens, UniProt P54577)
T4 sequence (P54577 whole entry): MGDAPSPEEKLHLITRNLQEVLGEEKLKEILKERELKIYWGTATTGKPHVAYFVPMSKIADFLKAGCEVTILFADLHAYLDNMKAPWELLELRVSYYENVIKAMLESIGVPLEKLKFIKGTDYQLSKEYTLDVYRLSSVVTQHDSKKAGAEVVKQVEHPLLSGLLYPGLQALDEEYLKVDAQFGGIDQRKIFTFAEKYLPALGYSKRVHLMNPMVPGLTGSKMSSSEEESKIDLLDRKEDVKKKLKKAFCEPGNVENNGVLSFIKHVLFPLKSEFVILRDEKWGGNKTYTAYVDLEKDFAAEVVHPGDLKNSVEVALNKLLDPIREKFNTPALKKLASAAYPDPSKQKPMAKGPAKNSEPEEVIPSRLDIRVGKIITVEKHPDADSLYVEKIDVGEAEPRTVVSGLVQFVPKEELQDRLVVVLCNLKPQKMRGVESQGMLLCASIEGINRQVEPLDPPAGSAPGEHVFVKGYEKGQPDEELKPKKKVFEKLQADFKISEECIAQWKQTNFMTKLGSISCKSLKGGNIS
Further: in the data inactive means no Kd found up to 30 µM.

Sequence of Cyclin-dependent kinase 4 (P11802 whole entry): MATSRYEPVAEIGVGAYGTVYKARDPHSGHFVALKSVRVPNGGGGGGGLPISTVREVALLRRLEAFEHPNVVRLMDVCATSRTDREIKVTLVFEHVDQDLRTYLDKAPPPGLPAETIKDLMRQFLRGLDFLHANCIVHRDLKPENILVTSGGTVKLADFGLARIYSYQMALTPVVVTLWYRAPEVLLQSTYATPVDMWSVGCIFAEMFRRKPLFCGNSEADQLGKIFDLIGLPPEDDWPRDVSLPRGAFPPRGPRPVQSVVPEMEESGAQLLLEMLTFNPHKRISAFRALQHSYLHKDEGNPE
Sequence of Aurora kinase B (Q96GD4 whole entry): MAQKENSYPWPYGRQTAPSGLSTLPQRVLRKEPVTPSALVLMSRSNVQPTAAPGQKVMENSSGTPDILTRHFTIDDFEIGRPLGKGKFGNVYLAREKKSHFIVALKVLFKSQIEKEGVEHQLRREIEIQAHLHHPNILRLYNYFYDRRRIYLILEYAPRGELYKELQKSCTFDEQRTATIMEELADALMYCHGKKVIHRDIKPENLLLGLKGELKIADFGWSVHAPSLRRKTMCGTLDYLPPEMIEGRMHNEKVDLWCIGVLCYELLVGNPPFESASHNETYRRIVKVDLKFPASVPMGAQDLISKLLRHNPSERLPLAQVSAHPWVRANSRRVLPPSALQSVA

## COc1cc(OC)c(/C=C/S(=O)(=O)Cc2ccc(OC)c(NCC(=O)O)c2)c(OC)c1 [RIGOSERTIB]
Aurora kinase B
  Kd: > 30 µM (inactive)
[1]
  Kd: > 30 µM (inactive)
[2]
  Kd: > 30 µM (inactive)
[3]
  Kd: > 30 µM (inactive)
[4]
  Kd: > 30 µM (inactive)
[5]
  Kd: > 30 µM (inactive)
[6]
  Kd: > 30 µM (inactive)

## Cc1ccc(-n2nc(C(C)(C)C)cc2NC(=O)NCc2cc(F)ccc2Oc2ccc3c(cnn3CCO)c2)cc1 [PEXMETINIB]
Aurora kinase B
  Kd: > 30 µM (inactive)
[1]
  Kd: > 30 µM (inactive)
[2]
  Kd: > 30 µM (inactive)
[3]
  Kd: > 30 µM (inactive)
[4]
  Kd: > 30 µM (inactive)
[5]
  Kd: > 30 µM (inactive)
[6]
  Kd: > 30 µM (inactive)

## Cn1cc(-c2ccc(F)c(C(F)(F)F)c2)nc1C1CCN(c2ncnc3[nH]ncc23)CC1 [LY-2584702]
Aurora kinase B
  Kd: > 30 µM (inactive)
[1]
  Kd: > 30 µM (inactive)
[2]
  Kd: > 30 µM (inactive)
[3]
  Kd: > 30 µM (inactive)
[4]
  Kd: > 30 µM (inactive)
[5]
  Kd: > 30 µM (inactive)
[6]
  Kd: > 30 µM (inactive)

## CC[C@H](Nc1ncnc2[nH]cnc12)c1nc2cccc(F)c2c(=O)n1-c1ccccc1 [IDELALISIB]
Aurora kinase B
  Kd: > 30 µM (inactive)
[1]
  Kd: > 30 µM (inactive)
[2]
  Kd: > 30 µM (inactive)
[3]
  Kd: > 30 µM (inactive)
[4]
  Kd: > 30 µM (inactive)
[5]
  Kd: > 30 µM (inactive)
[6]
  Kd: > 30 µM (inactive)

## O=C1NC(=O)/C(=C/c2ccc3nccc(-c4ccncc4)c3c2)S1 [GSK-1059615]
Aurora kinase B
  Kd: > 30 µM (inactive)
[1]
  Kd: > 30 µM (inactive)
[2]
  Kd: > 30 µM (inactive)
[3]
  Kd: > 30 µM (inactive)
[4]
  Kd: > 30 µM (inactive)
[5]
  Kd: > 30 µM (inactive)
[6]
  Kd: > 30 µM (inactive)

## CNC(=O)c1cc(Oc2ccc(NC(=O)Nc3ccc(Cl)c(C(F)(F)F)c3)c(F)c2)ccn1 [REGORAFENIB]
Aurora kinase B
  Kd: > 30 µM (inactive)
[1]
  Kd: > 30 µM (inactive)
[2]
  Kd: > 30 µM (inactive)
[3]
  Kd: > 30 µM (inactive)
[4]
  Kd: > 30 µM (inactive)
[5]
  Kd: > 30 µM (inactive)
[6]
  Kd: > 30 µM (inactive)

## CN1CCC(CNc2ccc3ncc(-c4cccc(OC(F)(F)F)c4)n3n2)CC1 [SGI-1776]
Aurora kinase B
  Kd: > 30 µM (inactive)
[1]
  Kd: > 30 µM (inactive)
[2]
  Kd: > 30 µM (inactive)
[3]
  Kd: > 30 µM (inactive)
[4]
  Kd: > 30 µM (inactive)
[5]
  Kd: > 30 µM (inactive)
[6]
  Kd: > 30 µM (inactive)

## CC(C)Nc1cc(-c2c[nH]c(C(=O)N[C@H](CO)c3cccc(Cl)c3)c2)c(Cl)cn1 [ULIXERTINIB]
Aurora kinase B
  Kd: > 30 µM (inactive)
[1]
  Kd: > 30 µM (inactive)
[2]
  Kd: > 30 µM (inactive)
[3]
  Kd: > 30 µM (inactive)
[4]
  Kd: > 30 µM (inactive)
[5]
  Kd: > 30 µM (inactive)
[6]
  Kd: > 30 µM (inactive)

## CC[C@@H]1C(=O)N(C)c2cnc(Nc3ccc(C(=O)N[C@H]4CC[C@H](N5CCN(CC6CC6)CC5)CC4)cc3OC)nc2N1C(C)C [VOLASERTIB]
Aurora kinase B
  Kd: > 30 µM (inactive)
[1]
  Kd: > 30 µM (inactive)
[2]
  Kd: > 30 µM (inactive)
[3]
  Kd: > 30 µM (inactive)
[4]
  Kd: > 30 µM (inactive)
[5]
  Kd: > 30 µM (inactive)
[6]
  Kd: > 30 µM (inactive)

## CN1CC[C@@H](c2c(O)cc(O)c3c(=O)cc(-c4ccccc4Cl)oc23)[C@@H]1CO
Aurora kinase B
  Kd: > 30 µM (inactive)
[1]
  Kd: > 30 µM (inactive)
[2]
  Kd: > 30 µM (inactive)
[3]
  Kd: > 30 µM (inactive)
[4]
  Kd: 2.54 µM (active)
[5]
  Kd: > 30 µM (inactive)
[6]
  Kd: > 30 µM (inactive)
